Data published in ChEMBL document CHEMBL4507281, “Data for DCP probe BI-4394” (2021).

Columns and labels:
Conditions in all cases: Compound concentration 10.0 uM
[1] = molecular target: D(4) dopamine receptor (Homo sapiens) (UniProt P21917)
[2] = molecular target: PI3-kinase p110-alpha/p85-alpha (Homo sapiens) (UniProt P27986+P42336)
[3] = molecular target: Tyrosine-protein kinase BTK (Homo sapiens) (UniProt Q06187)
[4] = molecular target: Epidermal growth factor receptor (Homo sapiens) (UniProt P00533)
[5] = molecular target: Ephrin type-A receptor 2 (Homo sapiens) (UniProt P29317)
[6] = molecular target: MAP kinase-activated protein kinase 2 (Homo sapiens) (UniProt P49137)
[7] = molecular target: D(1A) dopamine receptor (Homo sapiens) (UniProt P21728)
[8] = molecular target: Mitogen-activated protein kinase 14 (Homo sapiens) (UniProt Q16539)
[9] = molecular target: High affinity nerve growth factor receptor (Homo sapiens) (UniProt P04629)
[10] = molecular target: Tyrosine-protein kinase ABL1 (Homo sapiens) (UniProt P00519)
[11] = molecular target: Mast/stem cell growth factor receptor Kit (Homo sapiens) (UniProt P10721)
[12] = molecular target: Tyrosine-protein kinase Lck (Homo sapiens) (UniProt P06239)
[13] = molecular target: Serine/threonine-protein kinase MARK2 (Homo sapiens) (UniProt Q7KZI7)
[14] = molecular target: Beta-1 adrenergic receptor (Homo sapiens) (UniProt P08588)
[15] = molecular target: Hepatocyte growth factor receptor (Homo sapiens) (UniProt P08581)
[16] = molecular target: T1, Tyrosine-protein kinase ZAP-70 (Homo sapiens) (UniProt P43403)
T1 sequence (whole entry): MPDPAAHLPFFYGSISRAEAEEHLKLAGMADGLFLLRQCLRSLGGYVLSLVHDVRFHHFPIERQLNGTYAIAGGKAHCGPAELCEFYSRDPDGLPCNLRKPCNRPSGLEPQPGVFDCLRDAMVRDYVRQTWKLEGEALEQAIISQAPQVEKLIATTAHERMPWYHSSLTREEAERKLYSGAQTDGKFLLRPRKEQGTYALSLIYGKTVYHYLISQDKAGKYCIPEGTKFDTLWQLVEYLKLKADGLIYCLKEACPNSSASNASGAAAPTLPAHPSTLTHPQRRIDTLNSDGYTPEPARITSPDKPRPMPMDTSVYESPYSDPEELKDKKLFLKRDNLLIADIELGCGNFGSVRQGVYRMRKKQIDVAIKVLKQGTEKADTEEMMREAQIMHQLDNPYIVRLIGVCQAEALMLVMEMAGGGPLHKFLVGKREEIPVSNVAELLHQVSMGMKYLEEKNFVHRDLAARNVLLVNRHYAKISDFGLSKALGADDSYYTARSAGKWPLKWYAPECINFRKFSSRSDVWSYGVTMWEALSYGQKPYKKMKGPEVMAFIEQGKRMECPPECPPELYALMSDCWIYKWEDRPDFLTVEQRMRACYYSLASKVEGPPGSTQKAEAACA

[17] = molecular target: Tyrosine-protein kinase SYK (Homo sapiens) (UniProt P43405)
[18] = molecular target: Casein kinase I isoform gamma-2 (Homo sapiens) (UniProt P78368)
[19] = molecular target: Mitogen-activated protein kinase kinase kinase 9 (Homo sapiens) (UniProt P80192)
[20] = molecular target: Rho-associated protein kinase 1 (Homo sapiens) (UniProt Q13464)
[21] = molecular target: Proto-oncogene tyrosine-protein kinase Src (Homo sapiens) (UniProt P12931)
[22] = molecular target: RAC-alpha serine/threonine-protein kinase (Homo sapiens) (UniProt P31749)

Tyrosine-protein kinase Lck (Homo sapiens), sequence (P06239 2-509 limits assumed): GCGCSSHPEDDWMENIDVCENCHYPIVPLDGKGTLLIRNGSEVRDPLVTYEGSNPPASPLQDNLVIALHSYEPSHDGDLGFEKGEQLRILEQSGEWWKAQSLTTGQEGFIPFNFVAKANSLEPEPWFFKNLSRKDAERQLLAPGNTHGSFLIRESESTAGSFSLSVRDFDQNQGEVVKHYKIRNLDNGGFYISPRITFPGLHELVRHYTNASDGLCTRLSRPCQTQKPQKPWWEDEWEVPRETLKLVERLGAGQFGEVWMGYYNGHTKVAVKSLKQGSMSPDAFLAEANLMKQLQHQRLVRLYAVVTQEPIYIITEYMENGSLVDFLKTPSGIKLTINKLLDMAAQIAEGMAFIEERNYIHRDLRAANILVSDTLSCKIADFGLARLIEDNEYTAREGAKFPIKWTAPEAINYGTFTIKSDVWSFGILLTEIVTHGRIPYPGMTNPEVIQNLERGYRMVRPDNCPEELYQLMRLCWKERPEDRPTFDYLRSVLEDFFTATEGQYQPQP
Epidermal growth factor receptor (Homo sapiens), sequence (P00533 whole entry): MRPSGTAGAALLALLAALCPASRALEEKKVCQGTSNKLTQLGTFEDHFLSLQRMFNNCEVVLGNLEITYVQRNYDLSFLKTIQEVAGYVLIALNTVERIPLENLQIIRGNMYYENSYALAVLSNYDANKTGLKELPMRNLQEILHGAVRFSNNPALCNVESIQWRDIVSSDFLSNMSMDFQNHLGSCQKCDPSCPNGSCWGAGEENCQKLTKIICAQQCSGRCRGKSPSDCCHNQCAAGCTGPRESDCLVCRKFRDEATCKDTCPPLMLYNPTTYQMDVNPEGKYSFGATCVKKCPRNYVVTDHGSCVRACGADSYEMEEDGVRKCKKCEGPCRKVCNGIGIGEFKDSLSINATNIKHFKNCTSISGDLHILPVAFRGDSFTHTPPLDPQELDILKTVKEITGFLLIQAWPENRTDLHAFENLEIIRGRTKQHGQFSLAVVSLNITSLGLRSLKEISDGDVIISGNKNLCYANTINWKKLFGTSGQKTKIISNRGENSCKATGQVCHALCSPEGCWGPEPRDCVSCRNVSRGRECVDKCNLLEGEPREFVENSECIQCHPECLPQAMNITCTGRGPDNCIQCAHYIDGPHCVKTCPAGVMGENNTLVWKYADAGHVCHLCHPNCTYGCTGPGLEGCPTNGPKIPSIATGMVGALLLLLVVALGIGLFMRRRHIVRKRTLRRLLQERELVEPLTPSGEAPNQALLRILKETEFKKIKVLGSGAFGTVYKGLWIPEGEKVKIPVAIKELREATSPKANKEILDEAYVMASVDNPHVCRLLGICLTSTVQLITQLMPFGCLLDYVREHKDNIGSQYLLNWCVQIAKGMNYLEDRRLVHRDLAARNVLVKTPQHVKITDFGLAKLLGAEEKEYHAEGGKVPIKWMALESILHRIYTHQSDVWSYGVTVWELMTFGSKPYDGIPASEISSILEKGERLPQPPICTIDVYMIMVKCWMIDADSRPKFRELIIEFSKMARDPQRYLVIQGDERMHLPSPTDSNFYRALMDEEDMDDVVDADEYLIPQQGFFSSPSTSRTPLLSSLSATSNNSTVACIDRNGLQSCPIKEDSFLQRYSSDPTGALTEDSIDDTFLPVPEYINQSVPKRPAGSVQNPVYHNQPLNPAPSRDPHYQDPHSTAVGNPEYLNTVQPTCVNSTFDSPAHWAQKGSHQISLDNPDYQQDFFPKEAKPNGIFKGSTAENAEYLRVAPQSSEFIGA
Serine/threonine-protein kinase MARK2 (Homo sapiens), sequence (Q7KZI7 whole entry): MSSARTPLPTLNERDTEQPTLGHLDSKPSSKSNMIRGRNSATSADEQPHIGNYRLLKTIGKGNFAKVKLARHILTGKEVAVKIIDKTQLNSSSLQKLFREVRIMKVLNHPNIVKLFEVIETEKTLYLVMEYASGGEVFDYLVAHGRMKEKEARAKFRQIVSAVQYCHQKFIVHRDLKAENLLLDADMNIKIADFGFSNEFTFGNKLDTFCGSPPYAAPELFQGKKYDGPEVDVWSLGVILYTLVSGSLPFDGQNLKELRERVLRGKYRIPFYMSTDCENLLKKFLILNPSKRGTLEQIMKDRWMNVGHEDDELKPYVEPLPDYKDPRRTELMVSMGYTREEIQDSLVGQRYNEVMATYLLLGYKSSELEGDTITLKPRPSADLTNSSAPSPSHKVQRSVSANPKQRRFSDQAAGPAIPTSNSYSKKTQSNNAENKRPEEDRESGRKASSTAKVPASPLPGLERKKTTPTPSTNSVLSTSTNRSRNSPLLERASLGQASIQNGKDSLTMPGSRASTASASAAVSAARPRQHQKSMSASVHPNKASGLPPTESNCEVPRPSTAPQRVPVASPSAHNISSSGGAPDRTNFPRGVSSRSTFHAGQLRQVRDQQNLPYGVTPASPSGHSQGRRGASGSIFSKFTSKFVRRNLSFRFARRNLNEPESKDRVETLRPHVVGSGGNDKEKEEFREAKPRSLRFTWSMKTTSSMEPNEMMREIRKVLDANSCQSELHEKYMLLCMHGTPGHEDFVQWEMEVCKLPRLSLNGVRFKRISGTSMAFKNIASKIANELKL
Hepatocyte growth factor receptor (Homo sapiens), sequence (P08581 whole entry): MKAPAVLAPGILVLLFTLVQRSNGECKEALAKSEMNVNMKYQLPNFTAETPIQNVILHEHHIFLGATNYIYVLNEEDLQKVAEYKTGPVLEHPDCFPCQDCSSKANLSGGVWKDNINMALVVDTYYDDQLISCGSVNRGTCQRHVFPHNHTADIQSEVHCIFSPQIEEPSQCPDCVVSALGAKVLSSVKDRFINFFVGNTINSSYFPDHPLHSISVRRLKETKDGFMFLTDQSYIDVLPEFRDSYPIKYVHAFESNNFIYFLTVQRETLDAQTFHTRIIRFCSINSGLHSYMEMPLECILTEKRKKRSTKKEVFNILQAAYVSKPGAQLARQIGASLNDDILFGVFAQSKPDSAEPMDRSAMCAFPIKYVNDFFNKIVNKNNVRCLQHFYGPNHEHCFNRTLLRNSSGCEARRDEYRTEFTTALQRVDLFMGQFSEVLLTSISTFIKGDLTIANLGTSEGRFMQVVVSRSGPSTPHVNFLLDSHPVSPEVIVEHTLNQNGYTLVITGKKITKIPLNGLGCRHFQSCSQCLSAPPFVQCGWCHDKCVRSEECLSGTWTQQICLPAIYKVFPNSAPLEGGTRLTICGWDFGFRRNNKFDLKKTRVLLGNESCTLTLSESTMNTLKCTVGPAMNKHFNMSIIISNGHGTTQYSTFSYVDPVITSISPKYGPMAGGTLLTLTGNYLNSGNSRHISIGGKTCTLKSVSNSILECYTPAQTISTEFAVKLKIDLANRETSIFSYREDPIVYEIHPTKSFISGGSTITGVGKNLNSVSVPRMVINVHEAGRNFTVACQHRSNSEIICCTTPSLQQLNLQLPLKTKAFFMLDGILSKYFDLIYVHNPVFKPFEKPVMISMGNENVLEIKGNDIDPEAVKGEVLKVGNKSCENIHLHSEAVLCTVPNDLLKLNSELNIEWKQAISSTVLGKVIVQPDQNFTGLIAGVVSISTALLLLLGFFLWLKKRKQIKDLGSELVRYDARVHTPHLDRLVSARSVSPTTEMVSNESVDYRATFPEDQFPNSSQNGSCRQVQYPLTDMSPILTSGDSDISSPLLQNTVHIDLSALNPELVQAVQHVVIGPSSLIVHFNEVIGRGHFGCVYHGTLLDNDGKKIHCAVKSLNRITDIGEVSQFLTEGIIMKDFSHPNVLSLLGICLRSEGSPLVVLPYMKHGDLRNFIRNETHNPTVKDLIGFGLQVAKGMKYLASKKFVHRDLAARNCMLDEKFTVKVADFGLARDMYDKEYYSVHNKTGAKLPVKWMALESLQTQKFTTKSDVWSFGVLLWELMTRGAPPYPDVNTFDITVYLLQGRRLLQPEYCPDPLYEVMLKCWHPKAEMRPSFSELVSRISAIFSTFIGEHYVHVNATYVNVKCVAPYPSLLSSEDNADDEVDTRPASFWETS
Mitogen-activated protein kinase kinase kinase 9 (Homo sapiens), sequence (P80192 whole entry, looked up): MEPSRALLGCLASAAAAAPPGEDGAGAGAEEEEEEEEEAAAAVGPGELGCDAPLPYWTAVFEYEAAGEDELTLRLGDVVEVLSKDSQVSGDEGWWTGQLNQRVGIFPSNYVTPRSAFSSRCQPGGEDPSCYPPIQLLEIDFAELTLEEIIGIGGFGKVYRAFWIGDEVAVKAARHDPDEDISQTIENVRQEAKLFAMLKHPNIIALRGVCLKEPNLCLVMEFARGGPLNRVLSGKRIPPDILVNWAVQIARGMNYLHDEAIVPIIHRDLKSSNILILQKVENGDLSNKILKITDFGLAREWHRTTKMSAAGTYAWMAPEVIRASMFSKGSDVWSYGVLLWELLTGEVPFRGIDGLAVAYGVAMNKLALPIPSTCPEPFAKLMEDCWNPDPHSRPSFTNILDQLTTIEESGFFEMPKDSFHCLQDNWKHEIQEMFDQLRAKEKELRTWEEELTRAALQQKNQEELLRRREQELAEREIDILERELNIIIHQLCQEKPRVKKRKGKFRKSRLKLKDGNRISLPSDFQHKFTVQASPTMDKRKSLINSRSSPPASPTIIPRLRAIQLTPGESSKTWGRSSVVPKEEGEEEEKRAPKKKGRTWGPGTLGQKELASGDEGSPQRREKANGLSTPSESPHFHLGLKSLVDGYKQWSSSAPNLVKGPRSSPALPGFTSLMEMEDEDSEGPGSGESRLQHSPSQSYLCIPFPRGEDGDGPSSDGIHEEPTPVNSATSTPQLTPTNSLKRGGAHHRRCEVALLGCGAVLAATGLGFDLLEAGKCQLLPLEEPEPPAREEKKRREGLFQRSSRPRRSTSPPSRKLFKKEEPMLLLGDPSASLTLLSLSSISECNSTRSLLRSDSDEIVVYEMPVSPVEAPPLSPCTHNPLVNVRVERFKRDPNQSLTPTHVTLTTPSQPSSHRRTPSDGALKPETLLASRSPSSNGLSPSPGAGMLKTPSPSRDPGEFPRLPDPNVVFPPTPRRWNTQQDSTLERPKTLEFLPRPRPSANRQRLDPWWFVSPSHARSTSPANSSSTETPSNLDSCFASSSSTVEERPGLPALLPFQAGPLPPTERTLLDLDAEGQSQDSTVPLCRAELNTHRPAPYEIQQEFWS

For `Cn1nc(C(=O)NCc2ccc(C(=O)O)cc2)cc1-c1ccc2[nH]ccc2c1` [BI 4395], the inhibition [1] was -8.91%.

`CCOC(=O)c1cc2cc(-c3cc(C(=O)NCc4ccc(C(=O)O)cc4)nn3C)ccc2[nH]1` [BI 4394] was tested, and the residual activity [2] was 133%, the residual activity [3] was 68% and the residual activity [4] was 99%. For the same compound, the residual activity [5] was 85%, the residual activity [6] was 1% and the inhibition [7] was -5.02%. For the same compound, the residual activity [8] was 6%, the residual activity [9] was 190% and the residual activity [10] was 48%. It also gave a residual activity [11] of 77%, a residual activity [12] of 68% and a residual activity [13] of 107%. For the same compound, the inhibition [14] was -5.04%, the residual activity [15] was 43% and the residual activity [16] was 100%. The residual activity [17] was 56%, the residual activity [18] was 61% and the residual activity [19] was 93%. It also gave a residual activity [20] of 97%, a residual activity [21] of 25% and a residual activity [22] of 24%.
